Experimental data published in PMC9126886, “Yeast-based directed-evolution for high-throughput structural stabilization of G protein-coupled receptors (GPCRs)” (Scientific Reports, 2022).

Key:
Assay in all cases: saturation binding of fluorescent ligand, flow cytometry, permeabilized yeast
Type in all cases: cell-based
Details in all cases: PBS, 1% DMSO, 22 °C, 1 h; apparent affinity; labelled compound (fluorescent ligand itself); no G protein
A2aR [1] = target: T1, A2aR (Homo sapiens, UniProt P29274)
T1 construct: gene ADORA2A; full-length receptor with C-terminus (positions to 412), N-terminal synthetic pre-pro leader, no eGFP; pYES2 (subcloned from pITy-MC-His10), permeabilized S. cerevisiae BY4741
T1 sequence (P29274 whole entry): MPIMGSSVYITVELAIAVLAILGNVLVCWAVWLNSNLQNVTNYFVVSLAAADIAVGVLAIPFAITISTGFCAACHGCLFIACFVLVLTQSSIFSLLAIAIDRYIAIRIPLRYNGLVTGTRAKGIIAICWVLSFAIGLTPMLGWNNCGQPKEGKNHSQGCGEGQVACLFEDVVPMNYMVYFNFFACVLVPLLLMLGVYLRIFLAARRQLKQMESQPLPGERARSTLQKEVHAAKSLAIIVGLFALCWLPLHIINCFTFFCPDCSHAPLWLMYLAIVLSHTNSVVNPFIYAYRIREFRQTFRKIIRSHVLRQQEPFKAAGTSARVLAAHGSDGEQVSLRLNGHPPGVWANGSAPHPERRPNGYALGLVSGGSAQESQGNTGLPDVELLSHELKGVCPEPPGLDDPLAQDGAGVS
From the text: (§1) saturation binding of fluorescent ligand, flow cytometry, permeabilized yeast on A2aR

A2aR [2] = target: T2, A2aR (Homo sapiens, UniProt P29274, P313S/P354A)
T2 construct: gene ADORA2A; full-length receptor with C-terminus (positions to 412), N-terminal synthetic pre-pro leader, no eGFP; pYES2 (subcloned from pITy-MC-His10), permeabilized S. cerevisiae BY4741
T2 sequence (P29274 whole entry P313S/P354A): as the sequence (P29274 whole entry) above, with P313S, P354A counted along it
From the text: as §1

A2aR [3] = target: T3, A2aR (Homo sapiens, UniProt P29274, N34K)
T3 construct: gene ADORA2A; full-length receptor with C-terminus (positions to 412), N-terminal synthetic pre-pro leader, no eGFP; pYES2 (subcloned from pITy-MC-His10), permeabilized S. cerevisiae BY4741
T3 sequence (P29274 whole entry N34K): as the sequence (P29274 whole entry) above, with N34K counted along it
From the text: as §1

CA200623 was tested, and the “logEC50 ± SE^c” value (A2aR [1]) was −8.01 ± 0.06, the “logEC50 ± SE^c” value (A2aR [2]) was −8.90 ± 0.03 and the “logEC50 ± SE^c” value (A2aR [3]) was −7.78 ± 0.04.
